Key:
Assay in all cases: Microorganism Efficacy Test (percent reduction in culture)
Format in all cases: cell-based
[1] = tested on: Candida albicans ATCC 1023; conditions: time point 60 seconds
Method: (§1) Example 1: A Microorganism Efficacy Test for Step One using Hypochlorous acid was tested against a range of different germs and bacteria to determine its efficacy. The hypochlorous acid was added to cultures of the listed microorganisms and left for the indicated amount of time. The percent reduction of each microorganism was measured after the time period had elapsed and the results are shown below in Table 1.

[2] = tested on: Propionibacterium Acnes ATCC 6919; conditions: time point 60 seconds
Method: as §1

[3] = tested on: Proteus mirabilis ATCC7002; conditions: time point 15 seconds
Method: as §1

[4] = tested on: Staphylococcus arureus (MRSA) ATCC 33592; conditions: time point 15 seconds
Method: as §1

[5] = tested on: A brasiliensis ATCC 16404; conditions: time point 60 seconds
Method: as §1

[6] = tested on: Listeria Monocytogens ATCC 15313; conditions: time point 60 seconds
Method: as §1

[7] = tested on: C Difficile ATCC 43598; conditions: time point 60 seconds
Method: as §1

[8] = tested on: E. Coli ATCC 8739; conditions: time point 60 seconds
Method: as §1

[9] = tested on: Enterococcus faecalis (VRE) ATCC 51299; conditions: time point 15 seconds
Method: as §1

[10] = tested on: Pseudomonas aeruginosa ATCC 9027; conditions: time point 60 seconds
Method: as §1

[11] = tested on: K. pneumonia (CRE) ATCC BAA-2146; conditions: time point 60 seconds
Method: as §1

[12] = tested on: Acinetobacter baumannii ATCC 19606; conditions: time point 15 seconds
Method: as §1

[13] = tested on: Serratia marscesens ATCC 14756; conditions: time point 15 seconds
Method: as §1

[14] = tested on: S. aureus ATCC 6538; conditions: time point 60 seconds
Method: as §1

OCl [Hypochlorous acid]
% REDUCTION [1]: >99.9999% | % REDUCTION [2]: >99.99% | % REDUCTION [3]: >99.999% | % REDUCTION [4]: >99.999% | % REDUCTION [5]: >99.999% | % REDUCTION [6]: >99.96% | % REDUCTION [7]: >100% | % REDUCTION [8]: >99.999% | % REDUCTION [9]: 100% | % REDUCTION [10]: >99.999% | % REDUCTION [11]: >99.9994% | % REDUCTION [12]: 100% | % REDUCTION [13]: >99.999% | % REDUCTION [14]: >99.999%
